The text below walks through data of patent publication US9757432B2, “Materials and methods useful for treating glioblastorna” (Ohio State Innovation Foundation, priority 2012, dated 2017).

SMILES strings stand for the structures. Residues, ends and D or L forms follow the SMILES beside them. *: point of attachment. Cbz = O=C(OCc1ccccc1)*; CH2F = FC*

For this experiment, the system named is glioma cells. The experiment can be described thus: Rescue of SapC-DOPS-induced killing by pathway inhibitors. As to conditions: inhibitor given with SapC-DOPS. The class given is cell-based. The source says: Synergy analysis was completed using CompuSyn software.

For `Cn1cnc(N)c2ncnc1-2` [3-methyladeneine], the “rescue of SapC-DOPS-induced killing” value is given as “significant rescue”. In the case of `CO/C1=C\C(C)=C\[C@@H](C)[C@@H](O)[C@@H](C)C/C(C)=C/C=C/[C@H](OC)[C@@H]([C@@H](C)[C@@H](O)[C@H](C)[C@@]2(O)C[C@@H](O)[C@H](C)[C@@H](C(C)C)O2)OC1=O` [bafilomycin Al] it was “significant rescue”.

On to `COC(=O)C[C@H](NC(=O)[C@H](C)NC(=O)[C@@H](NC(=O)OCc1ccccc1)C(C)C)C(=O)CF` [Z-VAD-FMK] (Cbz-Val-Ala-Asp(OMe)-CH2F), for which the “rescue of SapC-DOPS-induced killing” value is “did not rescue”.
